ChEMBL document CHEMBL1201862, “PubChem BioAssay data set” (2004)
Active and inactive are the calls of the source.

Experiments:
[1] = biological target: T1, Ubiquitin-conjugating enzyme E2 N (Homo sapiens, UniProt P61088); type: functional
T1 sequence (P61088 whole entry): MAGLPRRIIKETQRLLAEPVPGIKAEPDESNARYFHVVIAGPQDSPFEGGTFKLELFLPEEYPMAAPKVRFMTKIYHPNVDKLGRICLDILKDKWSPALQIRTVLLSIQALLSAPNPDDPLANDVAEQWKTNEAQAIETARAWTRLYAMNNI

[2] = growth suppression of beta-catenin-knockout colon cells, dose response, cell-based, HCT116, human colon tumor (AID 1045); type: functional;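 further: HCT116 colon tumor cells with beta catenin knocked out; cells exposed to compound for 60 hours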
Vero = assay: cells; type: functional; details: Chlorocebus sabaeus
[3] = biological target: T1, Ubiquitin-conjugating enzyme E2 N; type: functional; remark: listed apart in the source
[4] = growth suppression of PTEN-null colon cells, dose response, cell-based, HCT116 PTEN knockout (AID 1047); type: functional;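 further: HCT116 colon tumor cells with PTEN knocked out; cells exposed to compound for 60 hours before readout; potency for loss of cell viability measured by luminescence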
[5] = biological target: Female germline-specific tumor suppressor gld-1 (Caenorhabditis elegans, UniProt Q17339); assay: inhibitors of GLD-1 binding to TGE RNA, dose response, biochemical, fluorescence polarization, C. elegans (AID 2802);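 further: fluorescence polarization of labeled TGE RNA bound by purified gld-1 protein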
Female germline-specific tumor suppressor gld-1, sequence (Q17339 whole entry): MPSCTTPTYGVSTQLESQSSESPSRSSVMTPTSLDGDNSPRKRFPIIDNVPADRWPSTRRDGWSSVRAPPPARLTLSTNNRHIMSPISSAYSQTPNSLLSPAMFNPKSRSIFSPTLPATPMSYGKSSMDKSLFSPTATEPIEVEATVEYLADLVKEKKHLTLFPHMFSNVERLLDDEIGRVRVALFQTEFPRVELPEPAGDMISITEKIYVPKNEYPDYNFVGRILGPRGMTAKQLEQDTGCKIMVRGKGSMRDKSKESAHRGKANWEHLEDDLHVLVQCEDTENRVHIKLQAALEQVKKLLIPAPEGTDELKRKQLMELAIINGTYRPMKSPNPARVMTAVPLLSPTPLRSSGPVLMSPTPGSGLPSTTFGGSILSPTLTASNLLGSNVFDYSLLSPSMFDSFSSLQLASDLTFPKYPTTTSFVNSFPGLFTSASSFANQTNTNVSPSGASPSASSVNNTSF

Protein Rev = Protein Rev (Human immunodeficiency virus type 1 group M subtype B (isolate HXB2)(HIV-1), UniProt P04618); assay: inhibitors of Rev binding to RRE RNA, dose response, biochemical, fluorescence polarization, HIV-1 (AID 434976); parameters: species or system Human immunodeficiency virus 1
Protein Rev, sequence (P04618 whole entry): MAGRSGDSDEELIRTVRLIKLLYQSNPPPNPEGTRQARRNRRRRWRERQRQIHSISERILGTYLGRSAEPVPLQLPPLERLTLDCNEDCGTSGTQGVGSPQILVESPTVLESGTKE

Bcl-2-related protein A1 = biological target: T2, Bcl-2-related protein A1 (Mus musculus, UniProt Q07440); type: functional;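 further: confirmatory dose–response counterscreen on Bfl-1, used to check hits from a UBC13 polyubiquitin inhibitor campaign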
T2 sequence (Q07440 whole entry): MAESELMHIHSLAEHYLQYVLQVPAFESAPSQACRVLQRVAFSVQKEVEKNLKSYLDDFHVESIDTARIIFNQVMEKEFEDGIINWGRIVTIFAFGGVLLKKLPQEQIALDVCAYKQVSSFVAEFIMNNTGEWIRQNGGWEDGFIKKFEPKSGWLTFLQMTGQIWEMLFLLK

[6] = biological target: Signal transducer and activator of transcription 3 (Homo sapiens, UniProt P40763); assay: STAT3 activators, late-stage profile, late-stage follow-up, cell-based, STAT1 reporter, BCL3 qPCR, cytotoxicity, panel member STAT3 Activation (AID 2049)
Signal transducer and activator of transcription 3, sequence (P40763 whole entry): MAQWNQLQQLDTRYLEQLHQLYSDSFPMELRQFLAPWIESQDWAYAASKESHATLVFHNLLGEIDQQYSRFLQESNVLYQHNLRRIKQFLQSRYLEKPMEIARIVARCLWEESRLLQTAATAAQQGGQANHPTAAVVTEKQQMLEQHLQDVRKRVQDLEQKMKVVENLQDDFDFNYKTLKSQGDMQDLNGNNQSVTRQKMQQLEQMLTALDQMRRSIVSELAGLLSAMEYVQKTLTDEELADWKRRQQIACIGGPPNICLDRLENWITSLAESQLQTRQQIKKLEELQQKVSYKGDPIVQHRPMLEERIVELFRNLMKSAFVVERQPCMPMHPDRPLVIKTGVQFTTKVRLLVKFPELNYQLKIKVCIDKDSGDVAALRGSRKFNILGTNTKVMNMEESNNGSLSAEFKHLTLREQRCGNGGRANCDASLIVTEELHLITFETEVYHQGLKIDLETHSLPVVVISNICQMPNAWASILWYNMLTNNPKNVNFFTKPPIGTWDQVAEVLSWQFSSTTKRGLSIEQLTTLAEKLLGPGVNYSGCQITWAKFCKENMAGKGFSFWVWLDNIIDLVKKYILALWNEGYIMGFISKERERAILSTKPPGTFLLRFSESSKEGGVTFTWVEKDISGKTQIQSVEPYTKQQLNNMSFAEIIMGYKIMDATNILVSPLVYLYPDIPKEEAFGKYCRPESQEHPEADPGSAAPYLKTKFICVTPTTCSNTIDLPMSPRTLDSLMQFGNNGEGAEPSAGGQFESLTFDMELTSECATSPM

BJ [7] = assay: cytotoxicity toward BJ-TERT-LT-ST fibroblasts, dose response, cell-based, RAS-independent, luminescence (AID 1935); type: functional; details: Homo sapiens;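 further: BJ fibroblasts immortalized with TERT plus LT and ST oncogenes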
BJ [8] = assay: cells; type: functional, cell-based; details: Homo sapiens
BJ [9] = assay: cytotoxicity toward BJ-TERT fibroblasts, dose response, cell-based, RAS-independent, luminescence (AID 1933); type: functional; details: Homo sapiens
[10] = cytotoxicity toward DRD oncogenic fibroblasts, dose response, cell-based, non-viral oncogenic, luminescence (AID 1934); type: functional; details: Homo sapiens
[11] = biological target: Envelope glycoprotein gp160 (Human immunodeficiency virus 1, UniProt Q6QLK5); assay: inhibitors of HIV fusion peptide binding, primary screen, biochemical, uHTS, fluorescence dequenching (AID 1986)
Envelope glycoprotein gp160, sequence (Q6QLK5 whole entry, the tested form may be a part): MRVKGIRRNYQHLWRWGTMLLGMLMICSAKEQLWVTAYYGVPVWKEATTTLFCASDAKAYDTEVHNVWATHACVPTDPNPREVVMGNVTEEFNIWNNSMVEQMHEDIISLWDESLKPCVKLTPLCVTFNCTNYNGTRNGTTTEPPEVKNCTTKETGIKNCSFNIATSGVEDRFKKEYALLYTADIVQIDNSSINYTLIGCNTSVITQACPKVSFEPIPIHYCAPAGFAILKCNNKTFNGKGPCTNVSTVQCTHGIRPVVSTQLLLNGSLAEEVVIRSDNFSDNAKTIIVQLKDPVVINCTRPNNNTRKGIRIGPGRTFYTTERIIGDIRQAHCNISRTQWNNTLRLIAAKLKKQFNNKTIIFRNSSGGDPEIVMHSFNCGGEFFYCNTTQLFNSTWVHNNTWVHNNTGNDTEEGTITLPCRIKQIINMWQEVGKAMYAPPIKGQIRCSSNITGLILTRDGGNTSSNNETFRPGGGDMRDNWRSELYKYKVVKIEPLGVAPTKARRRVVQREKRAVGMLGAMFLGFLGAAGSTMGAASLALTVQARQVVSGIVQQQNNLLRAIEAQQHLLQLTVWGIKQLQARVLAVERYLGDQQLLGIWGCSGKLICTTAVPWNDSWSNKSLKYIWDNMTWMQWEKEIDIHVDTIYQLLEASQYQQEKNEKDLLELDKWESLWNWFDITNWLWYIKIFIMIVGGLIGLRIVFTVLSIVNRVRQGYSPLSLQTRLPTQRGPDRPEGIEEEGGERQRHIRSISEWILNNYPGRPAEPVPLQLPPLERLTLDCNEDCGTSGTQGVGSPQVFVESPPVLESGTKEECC

[12] = Luminescence Cell-Based Dose Response HTS to Identify Activators of Luciferase Translation or Activity in H4-C Neuroglioblastoma Cells. [Related pubchem assays: 1829 (Project Summary), 1814 (Primary HTS)]; type: functional
[13] = Luminescence Cell-Based Dose Retest to Confirm Activators of 5'UTR Stem-Loop Driven Alpha-Synuclein mRNA Translation in H4 Neuroglioblastoma Cells. [Related pubchem assays (depositor defined):AID1813, AID1829]; type: functional
[14] = Luminescence Cell-Based Dose Confirmation HTS to Identify Activators of 5'UTR Stem-Loop Driven Alpha-Synuclein mRNA Translation in H4 Neuroglioblastoma Cells. [Related pubchem assays: 1829 (Project Summary), 1814 (Primary HTS)]; type: functional
[15] = Luminescence Cell-Based Dose Response HTS to Identify Activators of 5'UTR Stem-Loop Driven Prion Protein mRNA Translation in H4-C Neuroglioblastoma Cells. [Related pubchem assays: 1829 (Project Summary), 1814 (Primary HTS)]; type: functional
H4 = assay: Luminescence Cell-Based Dose Response HTS to Identify Activators of 5'UTR Stem-Loop Driven Prion Protein mRNA Translation in H4 Neuroglioblastoma Cells. [Related pubchem assays: 1829 (Project Summary), 1814 (Primary HTS)]; type: functional; details: Homo sapiens
[16] = Luminescence Cell-Based Dose Response HTS to Identify Activators of Luciferase Translation or Activity in H4 […] Cells. [Related pubchem assays: 1829 (Project Summary), 1814 (Primary HTS)]; type: functional
Staphylococcus aureus = assay: Inhibitors of Bacterial Quorum Sensing Structure Activity Relationship (SAR) Analysis: Dose Response Assay. [Related pubchem assays: 700, 527 ]; type: functional, organism-based
Interleukin-8 = biological target: T3, Interleukin-8 (Homo sapiens, UniProt P10145); assay: SAR analysis of tumor necrosis factor alpha (TNF-alpha) induced IL-8 secretion in MCF-7/NOD1 cells. [Related pubchem assays (depositor defined):AID1575, AID2250, AID2260]; type: functional, cell-based
T3 sequence (P10145 whole entry): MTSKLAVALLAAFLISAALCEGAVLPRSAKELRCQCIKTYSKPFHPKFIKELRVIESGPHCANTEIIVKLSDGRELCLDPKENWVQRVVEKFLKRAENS

HEK293 = assay: cells; details: Homo sapiens;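 further: cells exposed to compound for 14 hours overnight before viability readout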
Tumor necrosis factor = Tumor necrosis factor (Homo sapiens, UniProt P01375); assay: TNFa-triggered NF-kB activation inhibitors, SAR follow-up, cell-based, revised (AID 2337); type: functional
Tumor necrosis factor, sequence (P01375 whole entry): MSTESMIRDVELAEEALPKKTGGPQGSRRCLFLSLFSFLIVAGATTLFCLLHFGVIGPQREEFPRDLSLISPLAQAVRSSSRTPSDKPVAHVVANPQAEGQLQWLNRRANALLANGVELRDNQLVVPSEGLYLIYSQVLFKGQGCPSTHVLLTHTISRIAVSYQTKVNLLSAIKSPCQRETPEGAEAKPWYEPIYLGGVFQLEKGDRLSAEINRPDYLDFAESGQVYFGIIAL

[17] = polyadenylation inhibitors in yeast reporter, dose response, luminescence, S. cerevisiae SKY197-pL101 (AID 2525); type: functional, cell-based
[18] = Cytotoxicity screening for potential Inhibitors of Bacterial Capsule Biogenesis. [Related pubchem assays (depositor defined):AID488970]; type: functional
[19] = biological target: Heat shock protein HSP 90-alpha (Homo sapiens, UniProt P07900); type: functional, organism-based
[20] = microbe, parasite or virus in culture; type: functional; details: Mycobacterium tuberculosis

With `CN1CC2=Cc3ccccc3OC23Oc2ccccc2C=C3C1` the IC50 [1] was 2.55 µM (active), the EC50 [2] was 23 µM (active) and the CC50 (Vero) was 18.9 µM (active). For the same molecule, the IC50 [3] was 3.5 µM (active), the EC50 [4] was 25 µM (active) and the IC50 [5] was > 59.6 µM (inactive). For the same molecule, the IC50 (Protein Rev) was > 75.4 µM (not active) and the IC50 (Bcl-2-related protein A1) was > 20 µM (inactive).

With `COc1ccc(Cl)cc1NC(=O)c1cc(C2CC2)on1` the EC50 [6] was 0.00455 µM (active).

With `O=C(O)CN1C(=O)/C(=C\c2cn(-c3ccccc3)nc2-c2ccccc2)SC1=S` the EC50 (BJ [7]) was > 150 µM (not active), the EC50 (BJ [8]) was > 150 µM (not active) and the EC50 (BJ [9]) was 31.1 µM (active). For the same molecule, the EC50 [10] was 41.4 µM (active) and the IC50 [11] was > 99 µM (inactive).

In the case of `Cc1nn(C)c(Sc2ccccn2)c1[N+](=O)[O-]`, the EC50 [12] is reported as > 195 µM (not active), the EC50 [13] is reported as > 195 µM (inactive) and the EC50 [14] is reported as 1.7 µM (active). The EC50 [15] was > 195 µM (not active), the EC50 (H4) was > 120 µM (not active) and the EC50 [16] was 88.4 µM (active).

With `CSCCC(NC(=O)c1ccccc1)C(=O)OCC(=O)Nc1sc2c(c1C#N)CCCC2` (stereo not drawn) the IC50 (Staphylococcus aureus) was 0.44 µM (active).

For `Nc1nc2ccccc2n1S(=O)(=O)c1ccc([N+](=O)[O-])cc1`, the IC50 (Interleukin-8) was > 5 µM (inactive), the IC50 (HEK293) was > 20 µM (inactive) and the IC50 (Tumor necrosis factor) was > 20 µM (inactive).

With `N#C/C(=C/c1ccc([N+](=O)[O-])o1)c1nc2ccccc2[nH]1` the EC50 [17] was 3.08 µM (active).

For `O=C1C2(Cl)C3(Cl)C4(Cl)C(Cl)(Cl)C5(Cl)C3(Cl)C1(Cl)C5(Cl)C24Cl` (stereo not drawn) [KEPONE], the CC50 [18] was 8.69 µM (active), the AC50 [19] was 2.68 µM (active) and the CC50 [20] was 22.6 µM (active).
